We go through five molecules from patent US20210068400A1, “COMPOSITIONS CONTAINING COMBINATIONS OF NITROGEN-FIXING BACTERIA AND ADDITIONAL AGENTS AND THEIR USE IN FIXING NITROGEN IN PLANT SPECIES” (GRACE BREEDING NITROGEN FIXATION TECHNOLOGIES LTD., priority 2018, published 2021).

What is called IC50 is the concentration that inhibits the measured activity by half.

Values joined by “and” are separate entries in the source; they are usually repeats but may differ in a detail not shown here. Identical values can stand only once.

For data set [1], the system named is maize plants. In words: Maize field trial 4, total leaf nitrogen content (Example 4). Format: in vivo, maize (Zea mays). Conditions: maize leaves, 3 months after sowing. How it is done: Generally, the nitrogen content of the growing plant in the field study was measured using a spectrophotometric method based on the standard method “4500-NO3_I. Cadmium Reduction Flow Injection Method” published by the Standard Methods Organization (<https://www.standardmethods.org/doi/full/10.2105/SMWW.2882.089). This method is based on the conversion of nitrates in an aqueous plant material extract to nitrites by passing the extract through a copperized cadmium column. Subsequent processing steps convert the nitrites to a magenta-colored dye having an absorbance peak at 540 nm.
This trial was sown during the Israeli growing season of 2018 using the pioneer maize silage variety number W86. The field was washed from possible nitrogen using sprinkler irrigation. The combination treatments administered to the plants which are of relevance for the present study were: • PC. Positive Control—full commercial nitrogen. The plants were treated with 30 units of nitrogen per 1000 m^2 by means of applying to this area 60 kg urea containing 46% urea. • NC. Negative Control—no nitrogen. • 1. […]
The average total leaf nitrogen content was measured at one timepoint during growth of the maize plants, 3 months after sowing.

Data set [2] has as its system wheat (Galil variety). In words: Wheat field trial 5 (Example 5). Format: in vivo. The protocol:
Two different agricultural sites in Israel were selected for field trials in which the effects of compositions of the present invention on wheat crops were investigated. The various compositions were administered to the growing wheat (Galil variety) as described in Examples 3 and 4, hereinabove. The treatments used in this study are as follows:
B. Negative control (no nitrogen source)
A. Granules prepared according to Example 3, applied at a density of 4 kg granules per 1000 m^2.
C. Granules prepared according to Example 3, applied at a density of 2 kg granules per 1000 m^2.
F. Positive control—full commercial nitrogen. The plants were treated with 30 units of nitrogen per 1000 m^2 by means of applying to this area 60kg urea containing 46% urea.
The following parameters were measured in the wheat, in order to assess the effect of the treatment compositions on plant growth: […]

For data set [3], the system named is maize plants. In words: Maize field trial 3, growth parameters (Example 3). Format: in vivo, maize (Zea mays). Particulars: 3 months after sowing. The protocol: In some of the treatments (as explained hereinbelow), some or all of the active substances were added in the form of granules to the furrow in which the plants had been seeded. The granules were prepared by soaking 1 kg of Perlite granules (having a mean diameter greater than 2 mm) in the following solution: • 50 ml of the concentrated activating agent emulsion (as described above). • 930 ml water. • 10 ml Rhizobium leguminosarum biovar viceae (Cell-Tech™ granular; Monsanto Company) (Granule-R). or Bacillus subtilis (Granule-B) • 10 ml Calirus. • 1000 ml total
This trial was sown during the Israeli growing season of 2018 using the pioneer maize silage variety number W86. The field was washed from possible nitrogen using sprinklers irrigation. The combination treatments administered to the plants which are of relevance for the present study were: • A. Positive Control—full commercial nitrogen. The plants were treated with 30 units of nitrogen per 1000 m^2 by means of applying to this area 60 kg urea containing 46% urea. • B. Negative Control—no added nitrogen. • C. Rhizobium leguminosarum biovar viceae, 3% (containing 10^9 organisms) was added to the activating agent emulsion described in ‘general methods’ hereinabove, to which Calirus (1%) was also added. Perlite granules were soaked with this mixture as described hereinabove. The granules were added to the sowing trench at a density of 2 Kg granules per 1000m^2. • D. As for treatment C, but with the granule quantity adjusted to 1 Kg granules per 1000 m^2. • E. As for treatment C, but with the granule quantity adjusted to 4 Kg granules per 1000 m^2.
The following parameters were monitored at one timepoint during growth of the maize plants, 3 months after they were sown: • Plant stem caliber • Leaf width • Cob weight (taken from the main stems of 10 plants) • Total plant weight (10 plants) • Plant height
The statistical significance of the difference between the various treatment groups was determined using the Tukey-Kramer HSD test.

Data set [4] relates to Tomato seedlings inoculated with bacterial and fungal cocktails. In words: Inoculation of tomato seedlings. Particulars: 5 days following treatment; concentration 3; FIG. 31. In kind it is in vivo. How it is done: Tomato seedlings were inoculated with 10 cc of each test mixtures containing Rhizobium species and various combinations of activating phytochemicals. (including the bacterial and fungal cocktails described below) […].
The health of each plant was assessed 5 days following treatment, using a semi-quantitative inoculation index (0=healthy, 5=dead).
The composition and concentration of the various test mixtures, as well as the number of different activating agents used in combination are summarized in the following two tables (all concentrations are given as % v/v): […]

Data set [5] relates to RAW 264.7 macrophages. In words: Cell viability, Alamar Blue assay. In kind it is cell-based. The protocol:
(§1) RAW 264.7 macrophages were grown in flat-bottomed flasks using a standard growth medium (DMEM supplemented with 5% FBS, antibiotics and glutamine. The cells were maintained in accordance with standard procedures well known in the art. After the cells reached confluence, they were removed from the flasks using mechanical means and then concentrated by centrifuging and resuspended in a small volume of fresh culture medium. The cell concentration was adjusted with growth medium in order that about 75,000 cells could be added to each well of a 96-well plate. A combination of 25 μg/mL LPS and 10 U/ml IFN-γ DMEM, was used for activation of the macrophages. The various test agents were added to the wells one hour prior to activation. The cells were then incubated for a further 24 hours, prior to assaying the inflammatory mediator production and cell viability.
The Alamar Blue assay of viability was performed by adding 100 μl of a 10% Alamar Blue solution to each well and incubating at 37° C. for 1-2 hr. Fluorescence was measured (excitation at 545 nm and emission at 595 nm) and expressed as a percentage of the values in untreated control cells.
For orientation: Resazurin is reduced to fluorescent resorufin, in cell work by metabolically active cells.

Data set [6] deals with TNF-α production. In words: Inhibition of TNF-α production in activated RAW 264.7 macrophages (ELISA). Format: cell-based. Conditions: Mus musculus, RAW264.7; RAW 264.7 macrophages activated with LPS and IFN-γ, 24 hours. The protocol: as §1, with “viability. A sandwich ELISA was used to determine TNF-α concentration. The primary antibody was used at a concentration of 0.5 μg/mL in PBS. Serial dilutions of TNF-α standard from 0 to 1000 pg/mL in diluent (0.05% Tween-20, 0.1% BSA in PBS) were used as internal standard. TNF-α was detected with a biotinylated second antibody and an avidin peroxidase conjugate with TMB as detection reagent. The color development was monitored at 655 nm, taking readings after every 5 minutes. After 25 minutes, the reaction was stopped using 0.5 M sulphuric acid and the absorbance was measured at 450 nm.” for “viability.”
In general terms: An ELISA detects its analyte on a solid surface through an enzyme-linked reagent.

For data set [7], the system named is NO production. In words: Inhibition of NO production in activated RAW 264.7 macrophages (Griess assay). Format: cell-based. Conditions: Mus musculus, RAW264.7, 24 h, RAW 264.7 macrophages activated with LPS and IFN-γ. The protocol: as §1, with “viability. The production of NO by the macrophages subjected to the various treatments was assayed using the Griess reagent (equal volumes of 1% sulphanilamide and 0.1% […]-diamine in 5% HCl). 70 μl of supernatant from each test well was transferred to a fresh 96-well plate and mixed with 70 μL of Griess reagent and the violet color produced was measured at 540 nm.” for “viability.”

Data set [8] relates to Clavibacter michiganensis sp. Michiganensis (Cmm). In words: Survival of Cmm after co-incubation in test tubes, colony count. Format: cell-based. Conditions: Example 12, contact time 3 days. The protocol:
Various combinations of a 3% Rhizobium sp. preparation together with an emulsion containing 5 activating agents (E-91) or one of the components of said emulsion (naringin) and a culture of the plant pathogen Cmm (10^5-10^6 CFU/ml final concentration) were incubated in test tubes for up to 3 days (4 replicates per combination). At the end of the 3 day incubation period the contents of the test tubes containing all these components were plated on to growth medium and the numbers of colonies of Cmm and Rhizobium species for each test condition (CFU/ml) were measured.
The emulsion containing the 5 activating agents (Sclaerol, Naringin, Nootkatone, Stevia and CBD; referred to in the results table hereinbelow as 5% plant emulsion E-91) was prepared as described in Example 6, hereinabove.
This study was conducted in essentially the same manner as the study presented in Example 12. In the present study, however, the effect of the 5-component activating agent emulsion (5% plant emulsion E91) is compared with the following combinations of activating agents: […]

The mark [9] stands for this setting: at the IC50 for inhibition of NO production.
[10] abbreviates: at the IC50 for inhibition of TNF-α production.

In the case of `NC(N)=O` [A. Positive control - full nitrogen, urea], the “AVERAGE N2 CONTENT (total leaf nitrogen)” value in data set [1] is given as 3.16. Also, the “Average wheat grain yield” value in data set [2] (from each of 6 2 m plots) was determined as 1.11 kg. In data set [2] (wheat), the Flag leaf width is 2.0 cm, the Main shoot diameter amounted to 0.42 cm and the “No. of side shoots” value turned out to be 1.3. Besides, the “Average nitrogen content, flag leaves” value in data set [2] (wheat flag leaf) is 2.94. Further, the “Total plant weight (10 plants)” value in data set [3] (10 plants) stood at 11.81 kg. In data set [3] (cobs from the main stems of 10 plants), the “Mean cob weight (10 plants)” value is recorded as 3.96 kg. In data set [3] (maize), the Mean Plant stem caliber came to 37.2 mm and the Mean leaf width stood at 10.5 cm. Besides, the Plant height in data set [3] (mean of 10 plants) turned out to be 2.72 m.
Take `C=C(C)[C@@H]1CCC(C)=C[C@H]1c1c(O)cc(CCCCC)cc1O` [Cannabidiol (CBD; hemp oil), cannabidiol]: in data set [4], the “Protection of tomato plants (inoculation index 0=healthy, 5=dead)” value is reported as “highly active even when present as the sole activating agent”.
For `C=C[C@](C)(O)CC[C@@H]1[C@@]2(C)CCCC(C)(C)[C@@H]2CC[C@@]1(C)O` [Sclareol], the “Cell viability (% of cell survival)” value in data set [5] (setting [9]) turned out to be 96.20 ± 2.1%; in data set [5] (setting [10]) it was 95.30 ± 2.2%. Besides, the concentration for half-maximal inhibition (IC50) in data set [6] is 80 µg/mL; in data set [7], 40 µg/mL.
For the molecule `C=C1C[C@@]23CC[C@H]4[C@@](C)(CCC[C@@]4(C)C(=O)O)[C@@H]2CC[C@]1(O)C3` [Steviol], in data set [6], the IC50 turned out to be 80 µg/mL.
On to `C[C@@H]1O[C@@H](O[C@H]2[C@H](Oc3cc(O)c4c(c3)O[C@H](c3ccc(O)cc3)CC4=O)O[C@H](CO)[C@@H](O)[C@@H]2O)[C@H](O)[C@H](O)[C@H]1O` [Naringin], for which the “Cell viability (% of cell survival)” value in data set [5] (setting [9]) was 90.10 ± 4.2%; in data set [5] (setting [10]), 91.50 ± 5.2%. In addition, the IC50 in data set [6] was 90 µg/mL; in data set [7], 40 µg/mL. For the same molecule, the “Cmm count, MEAN” value in data set [8] (mean of 4 replicates) is recorded as 7.75 × 10^5 CFU/ml. For the same molecule, the “Cmm count, individual replicates” value in data set [8] (replicates 1-4, listed as Cmm + 0.1% Naringin) is 6.5 × 10^5 CFU/ml and 8.3 × 10^5 CFU/ml and 7.7 × 10^5 CFU/ml and 8.6 × 10^5 CFU/ml.
